In article PMC8396812, “Aphid Odorant-Binding Protein 9 Is Narrowly Tuned to Linear Alcohols and Aldehydes of Sixteen Carbon Atoms” (Insects, 2021) one finds KD and Kd data, which are given here for 13 compounds.

Each structure is given as a SMILES string.

The target of one assay is T1, ApisOBP9 (Acyrthosiphon pisum, UniProt A0A8R1TD77).
T1 construct: pET30, E. coli, N-terminal His-tag removed with enterokinase
T1 sequence (A0A8R1TD77 25-165): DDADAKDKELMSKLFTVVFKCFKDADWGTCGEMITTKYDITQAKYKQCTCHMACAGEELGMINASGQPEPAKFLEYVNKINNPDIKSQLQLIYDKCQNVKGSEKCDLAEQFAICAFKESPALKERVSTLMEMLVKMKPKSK
In words: competitive displacement of 1-NPN fluorescence. It counts as binding. The following applies: 2 μM protein, 2 μM 1-NPN, 50 mM Tris-HCl pH 7.4, room temperature.
Take `CC1=C(C=O)C(C)(C)CC=C1` [safranal]: the KD result was “with only coniferyl aldehyde and safranal showing moderate affinities”.
The same measure, in the same setting: to `COc1cc(/C=C/C=O)ccc1O` [coniferyl aldehyde] belongs “with only coniferyl aldehyde and safranal showing moderate affinities”; to `C=CC(=C)CC/C=C(\C)CCC=C(C)C` [(E)-β-farnesene], “in our hands, ApisOBP9 showed some affinity to EBF”.

Another assay has as its target T1, ApisOBP9. In words: biochemical. Further details: competitive displacement of 1-NPN fluorescence from recombinant OBP9, Kd calculated from IC50. To be noted: read-out: ApisOBP9-WT. The method, then: Affinity constants were evaluated by the competitive fluorescent method, using a PerkinElmer FL 6500 spectrofluorometer in a right-angle configuration at room temperature and quartz cuvettes with a 1 cm path. The fluorescent probe N-phenyl-1-naphthylamine (1-NPN) was excited at 337 nm, and emission spectra were recorded between 380 and 450 nm. Binding of 1-NPN was evaluated by adding aliquots of a 1 mM methanol solution to reach final concentrations of 2–16 μM, to a 2 μM solution of the protein in 50 mM Tris-HCl buffer, pH 7.4. Intensity values were recorded at the peak maximum, around 412 nm. The dissociation constant of the complex protein/1-NPN was calculated using Prism software (https://www.graphpad.com/scientific-software/prism/, accessed on 10 February 2021). The affinities of other ligands were evaluated in competitive binding assays by adding aliquots of 1 mM methanol solutions of each ligand to final concentration values of 2 to 16 μM, to a mixture of the protein and 1-NPN, both at the concentration of 2 μM in 50 mM Tris-HCl buffer, pH 7.4. Dissociation constants of ligands were calculated from the corresponding [IC]50 values (the concentration of each ligand halving the initial value of fluorescence), using the equation:KD = [IC]50/1 + [1-NPN]/K1-NPN where [1-NPN] is the concentration of free 1-NPN, and K1-NPN the dissociation constant of the complex protein/1-NPN. All results of the binding experiments are reported in Figure 2 and in Supplementary Figures S1–S4, including those performed on a mutant (Lys37Leu), designed on the results obtained with the wild-type ApisOBP9. First, we measured the affinity of the protein to the fluorescent probe N-phenyl-1-naphthylamine (1-NPN), the most widely used with insect OBPs.
As for `CCCCCCCCCC(=O)O` [Decanoic acid], the Kd is 14500 nM.
As to `CC1=C(C=O)C(C)(C)CC=C1` [safranal], the Kd was 11400 nM.
`CCCCCCCCCCCCCCCCO` [1-hexadecanol]: the Kd is 1900 nM.
For the compound `CCCCCC/C=C\CCCCCCCC=O` [Z9-hexadecenal], the Kd is 1440 nM.
Regarding `COc1cc(/C=C/C=O)ccc1O` [coniferyl aldehyde], the Kd was 7890 nM.
`CCCCCCCCCCCCO` [1-Dodecanol]: the Kd is 3790 nM.
As for `CCCC/C=C\CCCCCCCCCCO` [Z11-1-hexadecenol], the Kd was 1370 nM.
For `CCCC/C=C\CCCCCCCC=O` [(Z)-9-Tetradecenal], the Kd was 5310 nM.
Turning to `CCCC/C=C\CCCCCCCCCC=O` [Z11-hexadecenal], the Kd was 1140 nM.
Same read-out and setting: to `CCCC/C=C\CCCCCCOC(C)=O` [(Z)-7-Dodecenyl acetate] belongs 1380 nM; to `CCCC/C=C\CCCCCCCCCCCC=O` [(Z)-13-Octadecenal], 2280 nM; to `CCCCCCCCCCCCCCO` [1-Tetradecanol], 3410 nM.
